Reference: patent publication US3996229A, “1-[10,11-Dihydro-dibenzo[b,f]-thiepin-10-yl]-4-(alkynylalkyl)-piperazines” (Hoffmann-La Roche Inc., priority 1974, dated 1976)

Key:
[1] = system: rats; experiment: "Pole Climbing" Test (neuroleptic properties; blocking of conditioned and unconditioned reaction); assay type: in vivo, rat; conditions: for Quotient ED10 (blocking of the unconditioned reaction)/ED50 (blocking of the conditioned reaction) / ED50: rats; for Quotient ED10 (blocking of the unconditioned reaction)/ED50 (blocking of the conditioned reaction): p.o., higher quotient = greater selectivity of the neuroleptic action; for ED50: Rattus norvegicus, po, pole climbing, conditioned impulse (acoustic signal)
Protocol: The neuroleptic properties of the foregoing derivatives were determined numerically on the basis of the following test, i.e., the "pole climbing" test.
This test provides information about the behavior reaction of rats. Rats are trained to avoid, by climbing up a vertical pole in the test chamber, an electrical impulse--unconditioned impulse--released via the wire-latticed floor some seconds after an acoustic signal--conditioned impulse--.
The blocking of the conditioned reaction is designated by the parameter ED50 (mg/kg p.o.) and the blocking of the unconditioned reaction is designated by the parameter ED10 (mg/kg p.o.).
The parameter ED50 --blocking of the conditioned reaction--provides a measure of the neuroleptic activity strength of the derivative under investigation since, with falling value, the neuroleptic activity strength increases.

[2] = system: rats; experiment: Catalepsy Test; assay type: in vivo, rat; conditions: rats, intraperitoneally
Protocol: (§1) Representative dibenzo[b,f]thiepin derivatives of this invention were administered intraperitoneally to rats. The animals are considered to be cataleptic when the homolateral extremities remain in a crossed position for at least 10 seconds. The number of cataleptic animals is noted every 30 minutes for 6 hours.

[3] = system: mouse; experiment: Acute toxicity in the mouse; assay type: in vivo; conditions: acute toxicity, 24 hours
Protocol: (§2) The values relate to a duration of activity over a period of 24 hours: […]

[4] = Catalepsy Test; assay type: in vivo, rat; conditions: rat, in vivo, ip
Protocol: as §1

[5] = Acute toxicity in the mouse; assay type: in vivo; conditions: in vivo, po, period of 24 hours
Protocol: as §2

[6] = pole climbing test, chlorpromazine compared with Derivative A and Derivative B

For CN(C)CCCN1c2ccccc2Sc2ccc(Cl)cc21 [Chlorpromazine, reference compound], the “neuroleptic activity (in words)” value [1, 6] was “somewhat stronger activity”, the “quality (selectivity) of the neuroleptic activity (in words)” value [1, 6] was “clearly inferior” and the “Quotient ED10 (blocking of the unconditioned reaction)/ED50 (blocking of the conditioned reaction)” value (“Quotient ED10” for short) [1] was 2.5. For the same molecule, the “cataleptic side-effects (in words)” value [2] was “considerably greater cataleptic activity” and the “toxicity (in words)” value [3] was “clearly inferior”.
For C#CCN1CCN(C2Cc3ccc(OC)cc3Sc3ccc(SC)cc32)CC1.Cl.Cl (stereo not drawn) [Derivative A, 1-[10,11-Dihydro-3-methoxy-8-methylthio-dibenzo[b,f]thiepin-10-yl]-4-(2-propynyl)-piperazine dihydrochloride], the ED50 [1] was 17 mg/kg, the “Quotient ED10” value [1] was 9 and the TD50 at 6 h [4] was 88 mg/kg. For the same molecule, the “cataleptic side-effects (in words)” value [2] was “only very slight or no cataleptic side-effects” and the LD50 at 24 h [5] was 900 mg/kg.
With C#CCN1CCN(C2Cc3ccc(OC)cc3Sc3ccc(Cl)cc32)CC1.CS(=O)(=O)O.CS(=O)(=O)O (stereo not drawn) [Derivative B, 1-[8-Chloro-10,11-dihydro-3-methoxy-dibenzo[b,f]thiepin-10-yl]-4-(2-propynyl)-piperazine dimethanesulfonate] the ED50 [1] was 25 mg/kg, the “Quotient ED10” value [1] was 4 and the TD50 at 6 h [4] was > 100 mg/kg. For the same molecule, the “cataleptic side-effects (in words)” value [2] was “only very slight or no cataleptic side-effects” and the LD50 at 24 h [5] was 750 mg/kg.
